# From patent US9144557B2, “Hematopoietic growth factor mimetic small molecule compounds and their uses” (Ligand Pharmaceuticals Inc., priority 2009, dated 2015)
# Test system: UT7/EPO Cell line
# Experiment: Cell Proliferation Assay (UT7/EPO, ViaLight Plus)
# Format: cell-based, human
# Conditions: proliferative effect; compounds at 10 uM; UT7/EPO cells starved of EPO overnight; 72 hours at 37° C.; ViaLight Plus kit
# Experimental: The primary testing for the examplfied compounds was performed in UT7/EPO Cell line. UT7/EPO is human leukemia cell line, obtained from Dr. Norio Komatsu (Blood, Vol 82 (2), pp 456-464, 1993). These cells express endogenous EPO receptor and are dependant upon EPO for growth and proliferation. Briefly, the cells were starved of EPO overnight and plated in 96 or 384 well plates. The compounds were added to the cells at 10 uM concentration. The plates were then incubated at 37° C. for 72 hours. The proliferative effect of the compounds was measured by a commercially available kit from Lonza (ViaLight Plus).
row,SMILES,Activity (%)
1,"CN(C)c1cccc(/C=N/NC(=O)c2ccc(C(=O)NCCC(=O)NCCO)cc2)c1 [Compound 149, (E)-4-(2-(3-(dimethylamino)benzylidene)hydrazinecarbonyl)-N-(3-((2-hydroxyethyl)amino)-3-oxopropyl)benzamide]",22
2,"CN(C)c1cccc(/C=N/NC(=O)c2ccc(NCCCC(=O)NCCO)cc2)c1 [Compound 151, (E)-4-((4-(2-(3-(dimethylamino)benzylidene)hydrazinecarbonyl)phenyl)amino)-N-(2-hydroxyethyl)butanamide]",20
3,"COc1cccc(/C=N/NC(=O)c2ccc3c(ccn3CCCC(=O)Nc3cccc(N(C)C)c3)c2)c1 [Compound 156, (E)-N-(3-(dimethylamino)phenyl)-4-(5-(2-(3-methoxybenzylidene)hydrazinecarbonyl)-1H-indol-1-yl)butanamide]",21
4,"COCCNC(=O)CCCn1ccc2cc(C(=O)N/N=C/c3cccc(-n4cccn4)c3)ccc21 [Compound 160, (E)-4-(5-(2-(3-(1H-pyrazol-1-yl)benzylidene)hydrazinecarbonyl)-1H-indol-1-yl)-N-(2-methoxyethyl)butanamide]",22
5,"COc1cccc(/C=N/NC(=O)c2ccc(C(=O)NCCC(=O)NCCCCO)cc2)c1 [Compound 165, (E)-N-(3-((4-hydroxybutyl)amino)-3-oxopropyl)-4-(2-(3-methoxybenzylidene)hydrazinecarbonyl)benzamide]",19
6,"O=C(Nc1ccc2[nH]c(-c3ccccc3)nc2c1)c1ccc(-c2ccccc2)cc1 [Compound 172, N-(2-Phenyl-1H-benzo[d]imidazol-5-yl)-[1,1′-biphenyl]-4-carboxamide]",12
7,"COc1ccc(C(=O)Nc2ccc3[nH]c(-c4ccc(N5CCCC5)cc4)nc3c2)cc1 [Compound 177, 4-Methoxy-N-(2-(4-(pyrrolidin-1-yl)phenyl)-1H-benzo[d]imidazol-5-yl)benzamide]",15
8,"CN(C)c1ccc(C(=O)Nc2ccc3[nH]c(-c4ccc5c(c4)OCCN5C)nc3c2)cc1 [Compound 181, 4-(Dimethylamino)-N-(2-(4-methyl-3,4-dihydro-2H-benzo[b][1,4]oxazin-7-yl)-1H-benzo[d]imidazol-5-yl)benzamide]",20
9,"CN(C)c1ccc(C(=O)Nc2ccc3[nH]c(-c4ccc5nonc5c4)nc3c2)cc1 [Compound 186, N-(2-(benzo[c][1,2,5]oxadiazol-5-yl)-1H-benzo[d]imidazol-5-yl)-4-(dimethylamino)benzamide]",15
10,"CN(C)c1ccc(NC(=O)c2ccc(-c3nc4cc(NC(=O)c5ccccc5)ccc4[nH]3)cc2)cc1 [Compound 191, 4-(5-benzamido-1H-benzo[d]imidazol-2-yl)-N-(4-(dimethylamino)phenyl)benzamide]",18
11,"CN(C)c1ccc(NC(=O)c2ccc(-c3nc4cc(C(=O)Nc5ccc(N(C)C)cc5)ccc4[nH]3)cc2)cc1 [Compound 197, N-(4-(dimethylamino)phenyl)-2-(4-((4-(dimethylamino)phenyl)carbamoyl)phenyl)-1H-benzo[d]imidazole-5-carboxamide]",20
12,"CN(C)c1ccc(C(=O)Nc2ccc3[nH]c(-c4ccc(-c5nn[nH]n5)cc4)nc3c2)cc1 [Compound 202, N-(2-(4-(2H-tetrazol-5-yl)phenyl)-1H-benzo[d]imidazol-5-yl)-4-(dimethylamino)benzamide]",17
13,"CN(C)c1ccc(C(=O)Nc2ccc3[nH]c(-c4ccc(N(C)C)cc4)nc3c2)cc1 [Compound 206, 4-(dimethylamino)-N-(2-(4-(dimethylamino)phenyl)-1H-benzo[d]imidazol-5-yl)benzamide]",18
14,"COc1ccc(-c2nc3cc(NC(=O)c4cccs4)ccc3[nH]2)cc1 [Compound 210, N-(2-(4-methoxyphenyl)-1H-benzo[d]imidazol-5-yl)thiophene-2-carboxamide]",17
15,"O=C(Nc1ccccc1)c1ccc(-c2nc3cc(NC(=O)c4ccc(N5CCCCC5)cc4)ccc3[nH]2)cc1 [Compound 215, N-phenyl-4-(5-(4-(piperidin-1-yl)benzamido)-1H-benzo[d]imidazol-2-yl)benzamide]",16
16,"CN(C)c1ccc(C(=O)Nc2ccc3[nH]c(-c4ccc(-c5ccc(N(C)C)cc5)cc4)nc3c2)cc1 [Compound 220, 4-(dimethylamino)-N-(2-(4′-(dimethylamino)-[1,1′-biphenyl]-4-yl)-1H-benzo[d]imidazol-5-yl)benzamide]",19

row,SMILES,Activity (%)
1,"O=C(Nc1ccc2[nH]c(-c3ccc(N4CCCC4)cc3)nc2c1)c1ccc(N2CCCC2)cc1 [Compound 225, 4-(pyrrolidin-1-yl)-N-(2-(4-(pyrrolidin-1-yl)phenyl)-1H-benzo[d]imidazol-5-yl)benzamide]",20
2,"NNC(=O)c1ccc(-c2nc3cc(NC(=O)c4ccc(N5CCCC5)cc4)ccc3[nH]2)cc1 [Compound 230, N-(2-(4-(hydrazinecarbonyl)phenyl)-1H-benzo[d]imidazol-5-yl)-4-(pyrrolidin-1-yl)benzamide]",21
3,"CN(CCO)c1ccc(C(=O)Nc2ccc3[nH]c(-c4ccc(C(=O)NC5CC5)cc4)nc3c2)cc1 [Compound 235, N-cyclopropyl-4-(5-(4-((2-hydroxyethyl)(methyl)amino)benzamido)-1H-benzo[d]imidazol-2-yl)benzamide]",15
4,"O=C(Nc1ccc2[nH]c(-c3ccc(C(=O)NC4CC4)cc3)nc2c1)c1ccc(N2CCC(O)C2)cc1 (centres unmarked) [Compound 240, N-cyclopropyl-4-(5-(4-(3-hydroxypyrrolidin-1-yl)benzamido)-1H-benzo[d]imidazol-2-yl)benzamide]",15
5,"O=C(Nc1ccc(N2CCNCC2)cc1)c1ccc(-c2nc3cc(NC(=O)c4ccc(N5CCNCC5)cc4)ccc3[nH]2)cc1 [Compound 251, 4-(piperazin-1-yl)-N-(2-(4-((4-(piperazin-1-yl)phenyl)carbamoyl)phenyl)-1H-benzo[d]imidazol-5-yl)benzamide]",14
6,"O=C(Nc1ccc2[nH]c(-c3ccc(N4CCOCC4)nc3)nc2c1)c1ccc(N2CCOCC2)cc1 [Compound 256, 4-morpholino-N-(2-(6-morpholinopyridin-3-yl)-1H-benzo[d]imidazol-5-yl)benzamide]",12
7,"COc1ccc(/C=C/c2nc3cc(-c4ccc5nc(/C=C/c6ccc(OC)cc6)[nH]c5c4)ccc3[nH]2)cc1 [Compound 262, 2,2′-bis((E)-4-methoxystyryl)-1H,3′H-5,5′-bibenzo[d]imidazole]",20
8,"O=C(Nc1ccc2[nH]c(-c3cccc(-c4nc5cc(NC(=O)c6ccc(N7CCCC7)cc6)ccc5[nH]4)c3)nc2c1)c1ccc(N2CCCC2)cc1 [Compound 268, N,N′-(2,2′-(1,3-phenylene)bis(1H-benzo[d]imidazole-5,2-diyl))bis(4-(pyrrolidin-1-yl)benzamide)]",15
9,"CN(C)c1ccc(-c2nc3cc(NC(=O)c4ccc(C(=O)NN)cc4)ccc3[nH]2)cc1 [Compound 273, N-(2-(4-(dimethylamino)phenyl)-1H-benzo[d]imidazol-5-yl)-4-(hydrazinecarbonyl)benzamide]",16
10,"COc1cccc(/C=N/NC(=O)c2ccc(C(=O)Nc3ccc4nc(-c5ccc(N(C)C)cc5)[nH]c4c3)cc2)c1 [Compound 278, (E)-N-(2-(4-(dimethylamino)phenyl)-1H-benzo[d]imidazol-6-yl)-4-(2-(3-methoxybenzylidene)hydrazinecarbonyl)benzamide]",23
11,"CN(C)c1ccc(-c2nc3cc(C(=O)Nc4ccc(NC(=O)c5ccc6[nH]c(-c7ccc(N(C)C)cc7)nc6c5)cc4)ccc3[nH]2)cc1 [Compound 283, N,N′-(1,4-phenylene)bis(2-(4-(dimethylamino)phenyl)-1H-benzo[d]imidazole-5-carboxamide)]",19
12,"O=C(Nc1ccc2[nH]c(-c3ccc(N4CCOCC4)cc3)nc2c1)c1ccc2nc(-c3ccc(N(CCO)CCO)cc3)[nH]c2c1 [Compound 288, 2-(4-(bis(2-hydroxyethyl)amino)phenyl)-N-(2-(4-morpholinophenyl)-1H-benzo[d]imidazol-5-yl)-1H-benzo[d]imidazole-6-carboxamide]",17
13,"N#Cc1ccc(-c2nc3ccc(C(=O)Nc4ccc5[nH]c(-c6ccc(OCCO)cc6)nc5c4)cc3[nH]2)cc1 [Compound 294, 2-(4-cyanophenyl)-N-(2-(4-(2-hydroxyethoxy)phenyl)-1H-benzo[d]imidazol-5-yl)-1H-benzo[d]imidazole-6-carboxamide]",11
14,"O=C(Nc1ccc2[nH]c(-c3ccc(N4CCOCC4)cc3)nc2c1)c1ccc2nc(-c3ccc(OCCO)cc3)[nH]c2c1 [Compound 299, 2-(4-(2-hydroxyethoxy)phenyl)-N-(2-(4-morpholinophenyl)-1H-benzo[d]imidazol-5-yl)-1H-benzo[d]imidazole-6-carboxamide]",15
15,"CN(C)c1ccc(C(=O)Nc2ccc(C(O)c3ccc(NC(=O)c4ccc(N(C)C)cc4)cc3)cc2)cc1 [Compound 305, N,N′-((hydroxymethylene)bis(4,1-phenylene))bis(4-(dimethylamino)benzamide)]",18
16,"CN(C)c1ccc(C(=O)Nc2ccc(C(=NOC(=O)Cc3ccccc3)c3ccc(NC(=O)c4ccc(N(C)C)cc4)cc3)cc2)cc1 [Compound 310, N,N′-((((2-phenylacetoxy)imino)methylene)bis(4,1-phenylene))bis(4-(dimethylamino)benzamide)]",22
